Patent US20110245334A1, “USE OF RACEMATES OF PINOCEMBRIN IN PREPARING MEDICAMENTS FOR TREATING STROKE” (CSPC Zhonggi Pharmaceutical Technology (Shijiazhuang) Co. …, priority 2008, published 2011)

Assays:
Type in all cases: in vivo, rat
[1] = tested on: tMCAO rats; test: Infarct volume (TTC), tMCAO time window study; conditions: 2 hours ischemia and 24 hours reperfusion, 1 mg/kg, 3 h
Protocol: (§1) 1. In the test, transient middle cerebral artery occlusion (tMCAO) model of rats was adopted. The reperfusion was performed after focal cerebral ischemia for 2 hours so as to inspect therapeutic time window of pinocembrin after focal cerebral ischemia. The rats were administered by pinocembrin racemate (1 mg/kg, 5 mg/kg, intravenous injection) after reperfusion 1 hour, 4 hours and 6 hours (i.e., ischemia 3 hour, 6 hours and 8 hours). (R)-pinocembrin and (S)-pinocembrin (1 mg/kg, 5 mg/kg, intravenous injection) were administered after reperfusion 1 hour and 4 hours (i.e., ischemia 3 hour and 6 hours). The therapeutic time windows of these drugs in focal cerebral ischemia were assessed by studying their effects to neurological symptom scores, infarct sizes and brain water contents during 24 hours after tMCAO.
(§2) 2.4 Experimental Grouping and Administration • Sham operation group (intravenous injection of normal saline after 3 hours of ischemia); • Model group (intravenous injection of 50 mg/kg hydroxypropyl β-cyclodextrin after 3 hours of ischemia); • Nimodipine group (1 mg/kg, administered after 3 hours of ischemia); • Pinocembrin racemate group (1 mg/kg, 5 mg/kg, administered after 3, 6 and 8 hours of ischemia); • (R)-pinocembrin group (1 mg/kg, 5 mg/kg, administered after 3 and 6 hours of ischemia); • (S)-pinocembrin group (1 mg/kg, 5 mg/kg, administered after 3 and 6 hours of ischemia).
(§3) First administration was performed by intravenous injection, and intraperitoneal injection was carried out once 12 hours later with a dose 1.5 times of that for intravenous injection.
After neurobehavioral scoring, the rats were put to death by decollation and their brain tissues were taken out quickly and put into a refrigerator of −20° C. 10 min later, the brain tissues were moved to an environment of room temperature. After the olfactory bulb, cerebellar and lower brain stem were resected, the brain tissue was cut into six continuous coronal slices with an interval of 2 mm. Then the brain slices were quickly put into 5 ml solution containing 2% TTC and incubated at a constant temperature of 37° C. and in a condition of darkness for 30 min. During the time, the brain slices were tipped every 5 min. […] Every group of brain slices were put in order and photographed. The photographs were processed by an image analysis system and the infarct areas in each slice were calculated. The infarct volume of each slice was calculated via multiplying the infarct area by thickness of slice (2 mm), and the infarct volume was the sum of infarct volumes of all slices. The infarct volume percentage was expressed as: sick-side infarct volume/total sick-side brain volume.

[2] = tested on: MCAO rats; test: Regional cerebral blood flow (LDF), MCAO; conditions: 3 mg/kg
Description: The rats were fixed pronely on the stereotaxic apparatus and subjected to craniotomy. After cleaning for operation visual field, bregma was used as an origin, and a site situated 2 mm behind and 3 mm right to the bregma was selected as a measuring point. The region […] around the site was thinned by a dental drill. In the process, the integrity of dura was maintained and large vessels were avoided. Probe holder was located and fixed.
The rats were supinely fixed on the operating table to carry out MCAO surgery. When a nylon line was inserted in ICA, it was not inserted into intracranial part until LDF value was stable, and blood flow value in 10 min was recorded, and an average value thereof is used as a baseline value of cerebral blood flow. After the MCAO surgery completed, the nylon line was inserted into the intracranial part. When the blood flow value suddenly declined to 20-30% of the baseline value, it was noted that the blood flow in MCA had been blocked. The blood flow value before MCAO in every group was used as a baseline value (100%) of the group. […] LDF value was determined at the same site before the animals was put to death.

[3] = tested on: plasma fibrinogen; test: Plasma fibrinogen assay (ELISA) in SHRSP; set-up: Plasma fibrinogen: unit not given here; conditions: SHRSP rats, 3 mg/kg
Protocol: The mixture was centrifuged for 15 min at 3000 rpm and plasma fibrinogen in liquid supernatant was determined by euzymelinked immunosorbent assay (ELISA).

[4] = tested on: tMCAO rats; test: Neurobehavioral examination (Bederson's score), tMCAO time window study; conditions: 2 hours ischemia and 24 hours reperfusion, 1 mg/kg, 3 h
Protocol: as §1
The CCA and ICA were clipped with artery clips. Two No. 0 surgery lines were litigated on the ECA distal end with 2-3 mm spacing and then the vascular between the two surgery lines was cut. The distal end of ECA was pulled until it formed a straight line with the ICA. An incision was cut on ECA and a nylon line was inserted through ECA into ICA. After the artery clip was loosen, the nylon line was pushed on into the brain through ICA and inserted in depth of 18.5±0.5 mm when resistance was felt slightly. The nylon line reached a smaller anterior cerebral artery through the beginning of MCA and then the blood flow obstruction in right MCA was established. the animals were kept in anesthesia during the obstruction. After 2 hours of obstruction, the nylon line was gently pulled out to ECA stub to form reperfusion. During the surgery process, the animals were irradiated by table lamp of 100 W to maintain the body temperature. The room temperature was kept in range of 23-25° C.
as §2, §3
Neurobehavioral examination was performed respectively when the animals were awake after surgery and before the animals were put to death. Bederson's score was adopted (see details in Example 2, 1. Neurobehavioral Examination).

## COCCOC(=O)C1=C(C)NC(C)=C(C(=O)OC(C)C)C1c1cccc([N+](=O)[O-])c1 (stereo not shown) [Nimodipine, reference compound]
[1]
  Infarct percentage (%): 31.30 ± 10.31%
[2]; time point 10 min
  regional cerebral blood flow (rCBF): 99.91 ± 7.27 % of baseline value
[2]; time point 20 min
  regional cerebral blood flow (rCBF): 32.98 ± 8.09 % of baseline value
[2]; time point 30 min
  regional cerebral blood flow (rCBF): 55.58 ± 6.09 % of baseline value
[2]; time point 30 min, listed as nimodipine
  regional cerebral blood flow (rCBF): 55.58±6.09 % of baseline value
[2]; time point 40 min
  regional cerebral blood flow (rCBF): 67.96 ± 7.81 % of baseline value
[2]; time point 50 min
  regional cerebral blood flow (rCBF): 66.59 ± 9.08 % of baseline value
[2]; time point 60 min
  regional cerebral blood flow (rCBF): 64.09 ± 8.03 % of baseline value
[2]; time point 70 min
  regional cerebral blood flow (rCBF): 65.72 ± 8.58 % of baseline value
[2]; time point 80 min
  regional cerebral blood flow (rCBF): 64.98 ± 6.25 % of baseline value
[2]; time point 90 min
  regional cerebral blood flow (rCBF): 63.99 ± 6.09 % of baseline value
[2]; time point 100 min
  regional cerebral blood flow (rCBF): 67.01 ± 5.67 % of baseline value
[2]; time point 110 min
  regional cerebral blood flow (rCBF): 63.07 ± 6.1 % of baseline value
[2]; time point 120 min
  regional cerebral blood flow (rCBF): 61.85 ± 7.14 % of baseline value
[2]; time point 130 min
  regional cerebral blood flow (rCBF): 67.12 ± 8.09 % of baseline value
[2]; time point 140 min
  regional cerebral blood flow (rCBF): 65.89 ± 6.81 % of baseline value
[2]; time point 150 min
  regional cerebral blood flow (rCBF): 61.8 ± 8.08 % of baseline value
[2]; time point 160 min
  regional cerebral blood flow (rCBF): 63.47 ± 9.03 % of baseline value
[2]; time point 170 min
  regional cerebral blood flow (rCBF): 65.9 ± 7.58 % of baseline value
[2]; time point 180 min
  regional cerebral blood flow (rCBF): 66.08 ± 6.89 % of baseline value
[3]
  Plasma fibrinogen: 2.67 ± 0.13
[4]
  Neurobehavioral value: 2.09 ± 0.63
